Measured values reported in publication PMC9114115, “Property space mapping of Pseudomonas aeruginosa permeability to small molecules” (Scientific Reports, 2022).
≈ marks a conversion by molar mass, not a printed value. Where “and” joins values, the source holds several entries; their conditions need not be identical. Identical values can stand only once.

system: P. aeruginosa PAO1-Pore cells; experiment: LC–MS quantification of intracellular accumulation, PAO1-Pore; conditions: 1 min incubation, 10-80 µM;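 also: slope of accumulation versus external concentration fitted as a line through zero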
Method: (§1) PAO1-Pore and PΔ3-Pore were grown at 37 °C overnight with shaking at 225 rpm in 50 mM MOPS-M9 (pH 7.2) Minimal Medium supplemented with 1% glycerol[42],[43].
(§2) The next day, cells were sub-cultured (1.5:100) in fresh MOPS-M9 medium and grown for 16 h. The cultures were then split into two flasks and one of them was induced with 0.1 mM IPTG. Cells incubated for additional 4 h until OD600 reached ~ 1.0 and harvested by centrifugation at 3,275xg for 20 min in RT, washed and concentrated 10X in the spent medium. Assays were performed in 96-well plates in a final volume of […]. Cells were incubated with 10, 20, 40, 80 µM of compounds and after 1- and 40-min incubation at RT, 100 µL cell aliquots were collected by vacuum filtration onto 1.0 µm Glass Fiber Type B filters. For no-cell controls, compounds were diluted to 10, 20, 40, 80 µM final concentration in the same medium, incubated for 1 min and 40 min and filtered onto the same plates. The cell loaded and cell-free filters were dried, removed from plates and placed into 100% methanol at -80 °C for at least 10 min. Filter-bound material was extracted by water bath sonication for 1 min. Cell and filter debris were separated by ultracentrifugation at 45,000 rpm (TLA55 rotor, Beckman) for 8 min at 16 °C and the pellet re-extracted with 80% methanol in water by sonication for 15 min followed by ultracentrifugation at the same conditions. Supernatants from two extractions were combined. For the compound quantification, 5 µL of solution was analyzed in triplicate.
(§3) Calibration curves for MS analyses of compounds were generated in the same experiment by mixing compound at increasing concentrations with the sonicated PAO1 cell extracts. […] Azithromycin was used as a positive control in all experiments.
(§4) Samples were processed in positive ion mode. An Eclipse plus C18 Rapid Resolution HD column (1.8 μm, 2.1 × 50 mm, Agilent, USA) was used for separation. The flow rate was 0.6 mL/min using the following gradient: 0 to 1 min (0- 20% ACN), 1 to 4 min (20- 80% ACN), 4 to 5.1 min (80–100% ACN), 5.1 to 6.30 (100% ACN). Solvents contained 0.1% formic acid to promote positive ion formation in the electrospray. […] Data were analyzed using Agilent Masshunter workstation quantitative analysis v. B.10 software.

SMILES | Concentration slopes of accumulation, PAO1-Pore_1 min
CCn1cc(C(=O)O)c(=O)c2cc(F)c(N3CCNC(C)C3)c(F)c21 (stereo not shown) [OU-0000616, LOMEFLOXACIN] | 2.85
C[C@@H]1CN(c2c(F)c(N)c3c(=O)c(C(=O)O)cn(C4CC4)c3c2F)C[C@H](C)N1 [OU-0000617, SPARFLOXACIN] | 8.17

same assay, conditions: 40 min incubation, 10-80 µM

SMILES | Concentration slopes of accumulation, PAO1-Pore_40 min
CCn1cc(C(=O)O)c(=O)c2cc(F)c(N3CCNC(C)C3)c(F)c21 (stereo not shown) [OU-0000616, LOMEFLOXACIN] | 10.46
C[C@@H]1CN(c2c(F)c(N)c3c(=O)c(C(=O)O)cn(C4CC4)c3c2F)C[C@H](C)N1 [OU-0000617, SPARFLOXACIN] | 10.82

system: P. aeruginosa PΔ3 cells; experiment: not given; conditions: 1 min incubation, 10-80 µM;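 also: slope of accumulation versus external concentration fitted as a line through zero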
Method: as §1, §2, §3, §4

SMILES | Concentration slopes of accumulation, PΔ3_1 min
CCn1cc(C(=O)O)c(=O)c2cc(F)c(N3CCNC(C)C3)c(F)c21 (stereo not shown) [OU-0000616, LOMEFLOXACIN] | 2.91
C[C@@H]1CN(c2c(F)c(N)c3c(=O)c(C(=O)O)cn(C4CC4)c3c2F)C[C@H](C)N1 [OU-0000617, SPARFLOXACIN] | 5.48

same assay, conditions: 40 min incubation, 10-80 µM

SMILES | Concentration slopes of accumulation, PΔ3_40 min
CCn1cc(C(=O)O)c(=O)c2cc(F)c(N3CCNC(C)C3)c(F)c21 (stereo not shown) [OU-0000616, LOMEFLOXACIN] | 6.86
C[C@@H]1CN(c2c(F)c(N)c3c(=O)c(C(=O)O)cn(C4CC4)c3c2F)C[C@H](C)N1 [OU-0000617, SPARFLOXACIN] | 4.11

system: P. aeruginosa PAO1 cells; experiment: LC–MS quantification of intracellular accumulation, PAO1; conditions: 1 min incubation, 10-80 µM;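 also: slope of accumulation versus external concentration fitted as a line through zero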
Method: as §1, §2, §3, §4

SMILES | Concentration slopes of accumulation, PAO1_1 min
CCn1cc(C(=O)O)c(=O)c2cc(F)c(N3CCNC(C)C3)c(F)c21 (stereo not shown) [OU-0000616, LOMEFLOXACIN] | 3.37
C[C@@H]1CN(c2c(F)c(N)c3c(=O)c(C(=O)O)cn(C4CC4)c3c2F)C[C@H](C)N1 [OU-0000617, SPARFLOXACIN] | 4.89

same assay, conditions: 40 min incubation, 10-80 µM

SMILES | Concentration slopes of accumulation, PAO1_40 min
CCn1cc(C(=O)O)c(=O)c2cc(F)c(N3CCNC(C)C3)c(F)c21 (stereo not shown) [OU-0000616, LOMEFLOXACIN] | 2.56
C[C@@H]1CN(c2c(F)c(N)c3c(=O)c(C(=O)O)cn(C4CC4)c3c2F)C[C@H](C)N1 [OU-0000617, SPARFLOXACIN] | 5.25

system: P. aeruginosa; experiment: not given; conditions: sheet "Good" permeators; all listed compounds are good permeators
Method: The measured levels of compound accumulation were analyzed using machine learning to determine which features of the compounds are most important for enabling their cellular accumulation and to determine their optimal values. […] To accentuate the permeability aspect, the accumulation slopes in efflux-deficient and hyperporinated strains were normalized to those in the parental PAO1 strain.
To help visualize the data, we performed a principal component (PC) decomposition of the data.

SMILES | Cluster of the identified "good" permeators
CCn1cc(C(=O)O)c(=O)c2cc(F)c(N3CCNC(C)C3)c(F)c21 (stereo not shown) [OU-0000616, LOMEFLOXACIN] | 4
C[C@@H]1CN(c2c(F)c(N)c3c(=O)c(C(=O)O)cn(C4CC4)c3c2F)C[C@H](C)N1 [OU-0000617, SPARFLOXACIN] | 4

system: P. aeruginosa PAO1-Pore; experiment: MIC by two-fold dilution, hyperporinated PAO1-Pore; format: cell-based, Pseudomonas aeruginosa; conditions: PAO1-Pore, LB broth, Table S2
Method: (§5) In all experiments, P. aeruginosa PAO1-Pore (PAO1 attTn7::PLAC-fhuA) and PΔ3-Pore (ΔmexAB ΔmexCD ΔmexXY attTn7::PLAC-fhuA) strains were used[29]. Strains were routinely grown in Luria–Bertani (LB) or MOPS-M9 medium at 37 °C with aeration. MICs shown in Tables 1 and 2 were determined by a two-fold dilution method in LB broth and MOPS-M9 medium, respectively, following the previously described protocol.

SMILES | MICs
CCn1cc(C(=O)O)c(=O)c2cc(F)c(N3CCNC(C)C3)c(F)c21 (stereo not shown) [OU-0000616, LOMEFLOXACIN] | 1.56
C[C@@H]1CN(c2c(F)c(N)c3c(=O)c(C(=O)O)cn(C4CC4)c3c2F)C[C@H](C)N1 [OU-0000617, SPARFLOXACIN] | 0.25

same assay, conditions: Pseudomonas aeruginosa, PAO1, read-out: MICs

SMILES | MIC
CCn1cc(C(=O)O)c(=O)c2cc(F)c(N3CCNC(C)C3)c(F)c21 (stereo not shown) [OU-0000616, LOMEFLOXACIN] | 0.125 µM (≈ 0.0439 µg/mL)
C[C@@H]1CN(c2c(F)c(N)c3c(=O)c(C(=O)O)cn(C4CC4)c3c2F)C[C@H](C)N1 [OU-0000617, SPARFLOXACIN] | 0.031 µM and 0.01 µg/mL

system: P. aeruginosa PΔ3; experiment: microbe, parasite or virus in culture; format: cell-based, Pseudomonas aeruginosa; conditions: Pseudomonas aeruginosa, read-out: MICs
Method: as §5

SMILES | MIC
CCn1cc(C(=O)O)c(=O)c2cc(F)c(N3CCNC(C)C3)c(F)c21 (stereo not shown) [OU-0000616, LOMEFLOXACIN] | 0.625 µM (≈ 0.22 µg/mL)
C[C@@H]1CN(c2c(F)c(N)c3c(=O)c(C(=O)O)cn(C4CC4)c3c2F)C[C@H](C)N1 [OU-0000617, SPARFLOXACIN] | 0.5 µM and 0.2 µg/mL

system: P. aeruginosa PΔ3-Pore; experiment: MIC by two-fold dilution, barrierless PΔ3-Pore; format: cell-based, Pseudomonas aeruginosa; conditions: Pseudomonas aeruginosa, read-out: MICs, P∆3-Pore, MOPS-M9 medium
Method: as §5

SMILES | MIC
CCn1cc(C(=O)O)c(=O)c2cc(F)c(N3CCNC(C)C3)c(F)c21 (stereo not shown) [OU-0000616, LOMEFLOXACIN] | 0.125 µM (≈ 0.0439 µg/mL)
C[C@@H]1CN(c2c(F)c(N)c3c(=O)c(C(=O)O)cn(C4CC4)c3c2F)C[C@H](C)N1 [OU-0000617, SPARFLOXACIN] | 0.016 µM and 0.01 µg/mL

same assay, conditions: P∆3-Pore, LB broth, Table S2

SMILES | MICs
CCn1cc(C(=O)O)c(=O)c2cc(F)c(N3CCNC(C)C3)c(F)c21 (stereo not shown) [OU-0000616, LOMEFLOXACIN] | 0.024
C[C@@H]1CN(c2c(F)c(N)c3c(=O)c(C(=O)O)cn(C4CC4)c3c2F)C[C@H](C)N1 [OU-0000617, SPARFLOXACIN] | 0.0039

system: P. aeruginosa PΔ3-Pore cells; experiment: LC–MS quantification of intracellular accumulation, PΔ3-Pore; conditions: 1 min incubation, 10-80 µM;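 also: slope of accumulation versus external concentration fitted as a line through zero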
Method: as §1, §2, §3, §4

SMILES | Concentration slopes of accumulation, PΔ3-Pore_1 min
CCn1cc(C(=O)O)c(=O)c2cc(F)c(N3CCNC(C)C3)c(F)c21 (stereo not shown) [OU-0000616, LOMEFLOXACIN] | 3.95
C[C@@H]1CN(c2c(F)c(N)c3c(=O)c(C(=O)O)cn(C4CC4)c3c2F)C[C@H](C)N1 [OU-0000617, SPARFLOXACIN] | 4.64

same assay, conditions: 40 min incubation, 10-80 µM

SMILES | Concentration slopes of accumulation, PΔ3-Pore_40min
CCn1cc(C(=O)O)c(=O)c2cc(F)c(N3CCNC(C)C3)c(F)c21 (stereo not shown) [OU-0000616, LOMEFLOXACIN] | 8.65
C[C@@H]1CN(c2c(F)c(N)c3c(=O)c(C(=O)O)cn(C4CC4)c3c2F)C[C@H](C)N1 [OU-0000617, SPARFLOXACIN] | 10.98

system: P. aeruginosa PAO1; experiment: MIC by two-fold dilution, wild type PAO1; format: cell-based, Pseudomonas aeruginosa; conditions: PAO1, LB broth, Table S2
Method: as §5

SMILES | MICs
CCn1cc(C(=O)O)c(=O)c2cc(F)c(N3CCNC(C)C3)c(F)c21 (stereo not shown) [OU-0000616, LOMEFLOXACIN] | 1.56

same assay, conditions: Pseudomonas aeruginosa; PAO1, MOPS-M9 medium; read-out: MICs

SMILES | MIC
CCn1cc(C(=O)O)c(=O)c2cc(F)c(N3CCNC(C)C3)c(F)c21 (stereo not shown) [OU-0000616, LOMEFLOXACIN] | 2.5 µM (≈ 0.878 µg/mL)
C[C@@H]1CN(c2c(F)c(N)c3c(=O)c(C(=O)O)cn(C4CC4)c3c2F)C[C@H](C)N1 [OU-0000617, SPARFLOXACIN] | 2 µM and 0.8 µg/mL
